Results reported in article PMC5431883, “Enhancing Specific Disruption of Intracellular Protein Complexes by Hydrocarbon Stapled Peptides Using Lipid Based Delivery” (Scientific Reports, 2017).
One block for each molecule: values may come before it. Positions of bridges follow the written chain, without caps; N, C: chain ends. Non-standard residues stand in square brackets, D forms with d. Residues, ends and D or L forms follow the SMILES beside them. R8 = C=CCCCCCC[C@@](C)(N)C(=O)O; S5 = C=CCCC[C@](C)(N)C(=O)O; Ahx = NCCCCCC(=O)O

How the values were obtained:
T22 cells = experiment: Lactate dehydrogenase (LDH) release assay in T22 cells; assay type: cell-based, murine; conditions: for LDH Release (T22 Cells), 0% FCS (LDH50) / LDH Release (T22 Cells), 10% FCS (LDH50): 2 h treatment, normalised to 0.1% Triton X-100 lysis, 4 parameter fit to 10 point titration
Method: (§1) T22 cells or HEK 293 cells were seeded into a 96-well plate at a cell density of 5000 cells per well. Cells were maintained in Dulbecco’s Minimal Eagle Medium (DMEM) with 10% fetal bovine serum (FBS) and 1% (v/v) penicillin/streptomycin. The cells were incubated for 24 hours followed by cell media removal and addition of 90 µl of DMEM either with or without 10% FCS. Cells were then treated with compounds/peptide for 2 hours in DMEM with or without 10% FBS. Final working concentration of DMSO was 1% v/v. Corresponding negative control wells with 1% DMSO only were also prepared. Cytosolic lactate dehydrogenase release was detected using the cytoTox 96® non-radioactive cytotoxicity Assay kit (Promega) as per manufacturer’s instructions. Measurements were carried out using an Envision multiplate reader (Perkin-Elmer). Maximum LDH release was defined as the amount of LDH released when cells were lysed in the presence of 0.1% TRITON X-100 and was used to normalize the results.

Mdm2 (1-125) = molecular target: T1, Mdm2 (1-125) (Homo sapiens, UniProt Q00987); experiment: Mdm2 competitive fluorescence anisotropy assay (FAM-labeled 12/1 peptide displacement); assay type: binding; conditions: for Kd: read-out: Kd (apparent dissociation constant, competitive fluorescence anisotropy); on Kd (apparent dissociation constant, competitive fluorescence anisotropy): 250 nM MDM2
T1 construct: Purified MDM2 (1-125) protein was titrated against 50 nM carboxyfluorescein (FAM)-labeled; GST (N, cleaved yes); made in house; host or cells: E. coli BL21 DE3 (pGEX-6P-1)
Method: analyzed with SDS page gel and concentrated using a Centricon (3.5 kDa MWCO) concentrator, Millipore. Mdm2 protein samples were then dialyzed into a buffer solution containing 20mM Bis-Tris, pH 6.5, 0.05M NaCl with 1mM DTT and loaded onto a monoS column pre-equilibrated in buffer A (20mM Bis-Tris, pH 6.5, 1mM DTT). The column was then washed in 6 column volumes of buffer A and bound protein was eluted with a linear gradient of 1M NaCL over 25 column volumes. Protein fractions were analyzed with SDS page gel and concentrated using a Centricon (3.5 kDa MWCO) concentrator, Millipore.
Protein concentration was determined using A280 using an extinction coefficients […]
Mdm2 Competitive Fluorescence Anisotropy Assay and Kd Determination […]
Dissociation constants for titration of MDM2 against […]
equation shown below:25,26
[P] is the protein concentration (MDM2), [L] is the labeled peptide concentration, r is the anisotropy measured, r0 is the anisotropy of the free peptide, rb is the anisotropy of the MDM2– FAM-labeled peptide complex, Kd is the dissociation constant, [L]t is the total FAM labeled
(1 picture or pasted object on this page, not shown here) […]
peptide concentration, and [P]t is the total MDM2 concentration. […]
respective competing ligands in subsequent competition assays.
Apparent Kd values were determined for a variety of molecules via competitive fluorescence anisotropy experiments. Titrations were carried out with the concentration of MDM2 held constant […]
The competing molecules were then titrated against the complex of the FAM-labeled peptide and protein. Apparent Kd values were determined by fitting the experimental data to the equations shown below:26,27 […]
[L]st and [L]t denote labeled ligand and total unlabeled ligand input concentrations, respectively.
Kd2 is the dissociation constant of the interaction between the unlabeled ligand and the protein. In […]
all competitive types of experiments, it is assumed that [P]t > [L]st, otherwise considerable amounts of free labeled ligand would always be present and would interfere with measurements. Kd1 is the […]
experimentally determined as described in the previous paragraph. The FAM-labeled peptide was dissolved in dimethyl sulfoxide (DMSO) at 1 mM and diluted into experimental buffer. Readings were carried out with an Envision Multilabel Reader (PerkinElmer). Experiments were carried out […]
Tween 20 buffer. All titrations were carried out in triplicate. Curve-fitting was carried out using […]
Negative control titrations of the ligands under investigation were also carried out with the fluorescently labeled peptide (in the absence of MDM2) to ensure no interactions were occurring between the ligands and FAM-labeled peptide. […]
which would otherwise indicate an unintended interaction between the ligand and the FAM-labeled peptide to be displaced from the MDM2 binding site. […]

T22 p53 reporter cells = experiment: p53 gene reporter assay (β-galactosidase) in T22 cells; assay type: cell-based, murine; conditions: for P53 Activation (T22 Cells), 0% FCS (p53ACT50 / EC50) / P53 Activation (T22 Cells), 10% FCS (p53ACT50 / EC50): 18 h, 1% DMSO, normalised to 25 µM Nutlin, 4 parameter fit to 10 point titration
Method: T22 cells, which were stably transfected with a p53 responsive β-galactosidase reporter, were seeded into a 96-well plate at a cell density of 8000 cells per well. Cells were also maintained in Dulbecco’s Minimal Eagle Medium (DMEM) with 10% fetal calf serum (FCS) and 1% (v/v) penicillin/streptomycin. The cells were incubated for 24 hours and followed by cell media removal and replacement with 90 µl of fresh DMEM either containing 10% FCS or 0% FCS. 10 µl of each compound was then added directly to each well and incubated for 18 hours. Final working concentration of DMSO was 1% v/v. […] Measurements were carried out using an Envision multiplate reader (Perkin-Elmer). […] This was then used to normalize the experimental results.

HEK293 cells = experiment: Lactate dehydrogenase (LDH) release assay in HEK293 cells; assay type: cell-based; conditions: 0% FCS, 2 hour treatment, 12.5, 25 and 50 µM, normalised to 0.1% Triton X100 (Figure S1)
Method: as §1, with “results. […]” for “results.”
to induce LDH release in HEK293 cells after a 2 hour treatment period in A) the absence of FCS and B) the presence of 10% FCS. Compounds were tested at concentrations of 12.5 µM, 25 µM and 50 µM. Results were normalized to maximal LDH release as measured by treatment with 0.1% Triton X100.
(1 picture or pasted object on this page, not shown here)

T1 sequence (Q00987 1-125): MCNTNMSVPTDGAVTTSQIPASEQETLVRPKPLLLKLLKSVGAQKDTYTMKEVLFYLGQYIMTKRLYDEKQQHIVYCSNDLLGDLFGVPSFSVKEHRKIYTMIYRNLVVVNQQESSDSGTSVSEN

SMILES: CC(=O)N[C@@H](CCCCN)C(=O)N[C@@H](CCCCN)C(=O)NCCCCCC(=O)N[C@H](C(=O)N[C@@H](CO)C(=O)N[C@@H](CC(C)C)C(=O)N[C@]1(C)CCCCCCC=CCCC[C@@](C)(C(=O)N[C@@H](CCC(=O)O)C(=O)N[C@@H](CC(N)=O)C(=O)N[C@@H](Cc2ccccc2)C(N)=O)NC(=O)[C@H](Cc2c[nH]c3ccccc23)NC(=O)[C@H](CC(C)C)NC(=O)[C@H](C)NC(=O)[C@H](Cc2ccccc2)NC(=O)[C@H](Cc2ccc(O)cc2)NC(=O)[C@H](CCC(=O)O)NC1=O)[C@@H](C)O [VIP-82^SCRAM] (Ac-KK[Ahx]TSL[R8]EYFALW[S5]ENF-NH2; staple 7-14)
LDH Release (T22 Cells), 0% FCS (LDH50) (T22 cells): No Release | LDH Release (T22 Cells), 10% FCS (LDH50) (T22 cells): No Release | LDH release, peptide formulated with SaintPhD (in words) (T22 cells; formulated with SaintPhD (Figure S2)): did not induce any p53 activity or LDH release | binding against Mdm2 in the FA competition assay (in words) (Mdm2 (1-125)): no binding | P53 Activation (T22 Cells), 0% FCS (p53ACT50 / EC50) (T22 p53 reporter cells): No Activity | P53 Activation (T22 Cells), 10% FCS (p53ACT50 / EC50) (T22 p53 reporter cells): No Activity | p53 activity, peptide formulated with SaintPhD (in words) (T22 p53 reporter cells; formulated with SaintPhD, conditions identical to VIP-82:SaintPhD (Figure S2)): did not induce any p53 activity or LDH release

SMILES: CC(=O)N[C@H](C(=O)N[C@@H](CO)C(=O)N[C@@H](CC(C)C)C(=O)N[C@]1(C)CCCCCCC=CCCC[C@@](C)(C(N)=O)NC(=O)[C@H](Cc2c[nH]c3ccccc23)NC(=O)[C@H](CC(C)C)NC(=O)[C@H](C)NC(=O)[C@H](Cc2ccccc2)NC(=O)[C@H](Cc2ccc(O)cc2)NC(=O)[C@H](CCC(=O)O)NC1=O)[C@@H](C)O [sMTIDE-02^SCRAM] (Ac-TSL[R8]EYFALW[S5]-NH2; staple 4-11)
LDH Release (T22 Cells), 0% FCS (LDH50) (T22 cells): 25.1 ± 2.8 µM | LDH Release (T22 Cells), 10% FCS (LDH50) (T22 cells): 105 ± 8.0 µM | LDH release in HEK293 cells, absence of serum (in words) (HEK293 cells): induced significant amounts of LDH release | binding against Mdm2 in the FA competition assay (in words) (Mdm2 (1-125)): no binding | P53 Activation (T22 Cells), 0% FCS (p53ACT50 / EC50) (T22 p53 reporter cells): No Activity | P53 Activation (T22 Cells), 10% FCS (p53ACT50 / EC50) (T22 p53 reporter cells): No Activity

SMILES: CC(=O)N[C@@H](CCCCN)C(=O)N[C@@H](CCCCN)C(=O)N[C@@H](CCCCN)C(=O)NCCCCCC(=O)N[C@H](C(=O)N[C@@H](CO)C(=O)N[C@@H](CC(C)C)C(=O)N[C@]1(C)CCCCCCC=CCCC[C@@](C)(C(=O)N[C@@H](CCC(=O)O)C(=O)N[C@@H](CC(N)=O)C(=O)N[C@@H](Cc2ccccc2)C(N)=O)NC(=O)[C@H](Cc2c[nH]c3ccccc23)NC(=O)[C@H](CC(C)C)NC(=O)[C@H](C)NC(=O)[C@H](Cc2ccccc2)NC(=O)[C@H](Cc2ccc(O)cc2)NC(=O)[C@H](CCC(=O)O)NC1=O)[C@@H](C)O [VIP-127 SCRAM] (Ac-KKK[Ahx]TSL[R8]EYFALW[S5]ENF-NH2; staple 8-15)
Kd (Mdm2 (1-125)): > 10000 nM

Second part, the molecule after the results:

Kd (Mdm2 (1-125)): 130 ± 11.7 nM
SMILES: CC(=O)N[C@@H](Cc1c[nH]cn1)C(=O)N[C@@H](Cc1c[nH]cn1)C(=O)N[C@@H](Cc1c[nH]cn1)C(=O)NCCCCCC(=O)N[C@H](C(=O)N[C@@H](CO)C(=O)N[C@@H](Cc1ccccc1)C(=O)N[C@]1(C)CCCCCCC=CCCC[C@@](C)(C(N)=O)NC(=O)[C@H](CC(C)C)NC(=O)[C@H](CC(C)C)NC(=O)[C@H](C)NC(=O)[C@H](Cc2c[nH]c3ccccc23)NC(=O)[C@H](Cc2ccc(O)cc2)NC(=O)[C@H](CCC(=O)O)NC1=O)[C@@H](C)O [VIP-79]

Kd (Mdm2 (1-125)): 8 ± 0.8 nM
SMILES: CC(=O)N[C@H](CCCCN)C(=O)NCCCCCC(=O)N[C@H](C(=O)N[C@@H](CO)C(=O)N[C@@H](Cc1ccccc1)C(=O)N[C@]1(C)CCCCCCC=CCCC[C@@](C)(C(=O)N[C@@H](CCC(=O)O)C(=O)N[C@@H](CC(N)=O)C(=O)N[C@@H](Cc2ccccc2)C(N)=O)NC(=O)[C@H](CC(C)C)NC(=O)[C@H](CC(C)C)NC(=O)[C@H](C)NC(=O)[C@H](Cc2c[nH]c3ccccc23)NC(=O)[C@H](Cc2ccc(O)cc2)NC(=O)[C@H](CCC(=O)O)NC1=O)[C@@H](C)O [VIP-132]

Kd (Mdm2 (1-125)): 24.6 ± 2.2 nM
SMILES: CC(C)C[C@@H]1NC(=O)[C@H](C)NC(=O)[C@H](Cc2c[nH]c3ccccc23)NC(=O)[C@H](Cc2ccc(O)cc2)NC(=O)[C@H](CCC(=O)O)NC(=O)[C@](C)(NC(=O)[C@H](Cc2ccccc2)NC(=O)[C@H](CO)NC(=O)[C@@H](NC(=O)CCCCCNC(=O)CCCC[C@@H]2SC[C@@H]3NC(=O)N[C@@H]32)[C@@H](C)O)CCCCCCC=CCCC[C@@](C)(C(=O)N[C@@H](CCC(=O)O)C(=O)N[C@@H](CC(N)=O)C(=O)N[C@@H](Cc2ccccc2)C(N)=O)NC(=O)[C@H](CC(C)C)NC1=O [VIP-83]

Kd (Mdm2 (1-125)): 46.8 ± 3.9 nM
SMILES: CC(=O)N[C@@H](CCCCN)C(=O)N[C@@H](CCCCN)C(=O)NCCCCCC(=O)N[C@H](C(=O)N[C@@H](CO)C(=O)N[C@@H](Cc1ccccc1)C(=O)N[C@]1(C)CCCCCCC=CCCC[C@@](C)(C(N)=O)NC(=O)[C@H](CC(C)C)NC(=O)[C@H](CC(C)C)NC(=O)[C@H](C)NC(=O)[C@H](Cc2c[nH]c3ccccc23)NC(=O)[C@H](Cc2ccc(O)cc2)NC(=O)[C@H](CCC(=O)O)NC1=O)[C@@H](C)O [VIP-77]

Kd (Mdm2 (1-125)): 160 ± 14.6 nM
SMILES: CC(=O)N[C@@H](CCCNC(=N)N)C(=O)N[C@@H](CCCNC(=N)N)C(=O)NCCCCCC(=O)N[C@H](C(=O)N[C@@H](CO)C(=O)N[C@@H](Cc1ccccc1)C(=O)N[C@]1(C)CCCCCCC=CCCC[C@@](C)(C(=O)N[C@@H](CCC(=O)O)C(=O)N[C@@H](CC(N)=O)C(=O)N[C@@H](Cc2ccccc2)C(N)=O)NC(=O)[C@H](CC(C)C)NC(=O)[C@H](CC(C)C)NC(=O)[C@H](C)NC(=O)[C@H](Cc2c[nH]c3ccccc23)NC(=O)[C@H](Cc2ccc(O)cc2)NC(=O)[C@H](CCC(=O)O)NC1=O)[C@@H](C)O [VIP-117] (Ac-RR[Ahx]TSF[R8]EYWALL[S5]ENF-NH2; staple 7-14)
